Test results published in ChEMBL document CHEMBL1201862, “PubChem BioAssay data set” (2004).
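Tested at 5 concentrations; 48 h exposure; 96-well plates; endpoints linearly interpolated, else capped at highest concentration. At the GI50, growth is halved.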 Activity calls are given as the source filed them. Cut-off read from the data, not from the text of the source: active = GI50 up to about 1.1 µM and inactive = higher.

Experiments:
Experiment in all cases: growth of human tumour cells (NCI), 48 h
[1] = system: HT-29
[2] = system: NCI-H522
[3] = system: NCI-H226
[4] = system: SNB-75
[5] = system: SW-620
[6] = system: OVCAR-5
[7] = system: NCI-H460
[8] = system: CCRF-CEM
[9] = system: DU-145
[10] = system: OVCAR-3
[11] = system: RXF 393
[12] = system: T47D
[13] = system: NCI/ADR-RES
[14] = system: ACHN
[15] = system: SK-OV-3
[16] = system: HCC 2998
[17] = system: U-251
[18] = system: IGROV-1
[19] = system: HOP-92
[20] = system: SR

Row | SMILES | GI50 [1] | GI50 [2] | GI50 [3] | GI50 [4] | GI50 [5] | GI50 [6] | GI50 [7] | GI50 [8] | GI50 [9] | GI50 [10] | GI50 [11] | GI50 [12] | GI50 [13] | GI50 [14] | GI50 [15] | GI50 [16] | GI50 [17] | GI50 [18] | GI50 [19] | GI50 [20]
1 | CC(=O)OCC1OC(n2c(N)c(C#N)c(C)c(C#N)c2=S)C(OC(C)=O)C(OC(C)=O)C1OC(C)=O (stereo not given) | > 100 µM (inactive) | > 100 µM (inactive) | > 100 µM (inactive) | > 100 µM (inactive) | > 100 µM (inactive) | > 100 µM (inactive) | > 100 µM (inactive) | > 100 µM (inactive) | > 100 µM (inactive) | > 100 µM (inactive) | > 100 µM (inactive) | > 100 µM (inactive) | > 100 µM (inactive) | > 100 µM (inactive) | > 100 µM (inactive) | > 100 µM (inactive) | > 100 µM (inactive) | > 100 µM (inactive) |  | 
2 | CC(C)C(O)(C(C)C)C(C)C | > 100 µM (inactive) | > 100 µM (inactive) | > 100 µM (inactive) | > 100 µM (inactive) |  | > 100 µM (inactive) | > 100 µM (inactive) | > 100 µM (inactive) | > 100 µM (inactive) | > 100 µM (inactive) | > 100 µM (inactive) | > 100 µM (inactive) | > 100 µM (inactive) | > 100 µM (inactive) | > 100 µM (inactive) |  | > 100 µM (inactive) | > 100 µM (inactive) | > 100 µM (inactive) | > 100 µM (inactive)
3 | S=C(Nc1c2c(nc3ccccc13)CCCC2)Nc1c2c(nc3ccccc13)CCCC2 | > 100 µM (inactive) | > 100 µM (inactive) | > 100 µM (inactive) | > 100 µM (inactive) | > 100 µM (inactive) | > 100 µM (inactive) | > 100 µM (inactive) | > 100 µM (inactive) | > 100 µM (inactive) | > 100 µM (inactive) | > 100 µM (inactive) | > 100 µM (inactive) | > 100 µM (inactive) | > 100 µM (inactive) | > 100 µM (inactive) | > 100 µM (inactive) | > 100 µM (inactive) | > 100 µM (inactive) |  | > 100 µM (inactive)
4 | C=CCN1C(=O)N/C(=C\c2ccc(Cl)cc2)C1=O | > 100 µM (inactive) | 87.7 µM (inactive) | > 100 µM (inactive) | > 100 µM (inactive) | > 100 µM (inactive) | > 100 µM (inactive) | > 100 µM (inactive) | > 100 µM (inactive) | > 100 µM (inactive) | > 100 µM (inactive) | > 100 µM (inactive) | > 100 µM (inactive) | > 100 µM (inactive) | > 100 µM (inactive) | > 100 µM (inactive) |  | > 100 µM (inactive) | > 100 µM (inactive) | > 100 µM (inactive) | 
5 | CC(=O)O[C@H]1C(=O)[C@@]2(C)[C@H]([C@H](OC(=O)c3ccncc3)[C@]3(O)C[C@H](OC(=O)[C@H](O)[C@@H](NC(=O)c4ccccc4)c4ccccc4)C(C)=C1C3(C)C)[C@]1(OC(C)=O)CO[C@@H]1C[C@@H]2O | 1.42 µM (inactive) | 1.77 µM (inactive) | 16.1 µM (inactive) | 3.56 µM (inactive) | 1.56 µM (inactive) | 10 µM (inactive) | 9.14 µM (inactive) | 0.875 µM (active) | 11.6 µM (inactive) | 1.25 µM (inactive) | 7.01 µM (inactive) | > 5.94 µM (inactive) | > 25 µM (inactive) | > 22.3 µM (inactive) | 14.2 µM (inactive) | 3.24 µM (inactive) | 2.34 µM (inactive) | 2.44 µM (inactive) |  | 1.09 µM (active)
6 | O=c1[nH]c(Nc2nc3ccccc3[nH]2)nc(O)c1Cc1ccccc1 | > 100 µM (inactive) | > 100 µM (inactive) | > 100 µM (inactive) | 24 µM (inactive) | > 100 µM (inactive) |  | > 100 µM (inactive) | > 100 µM (inactive) | > 100 µM (inactive) |  |  | > 100 µM (inactive) | > 100 µM (inactive) | 61 µM (inactive) |  |  | 56.8 µM (inactive) | > 100 µM (inactive) | 0.193 µM (active) | > 100 µM (inactive)
7 | O=C(CSCC(=O)N/N=C\c1ccccc1F)N/N=C\c1ccccc1F | > 100 µM (inactive) | 64.6 µM (inactive) | 87.5 µM (inactive) | > 100 µM (inactive) | > 100 µM (inactive) |  | 99.5 µM (inactive) | 90.4 µM (inactive) | > 100 µM (inactive) | 27 µM (inactive) | > 100 µM (inactive) | 77.6 µM (inactive) | 14 µM (inactive) | > 100 µM (inactive) | > 100 µM (inactive) | 38.5 µM (inactive) | 67.3 µM (inactive) | > 100 µM (inactive) | > 100 µM (inactive) | 
8 | CCOC(=O)c1c(OCC)[nH]c(=O)c(C(c2cccs2)c2c(O)c(C(=O)OCC)c(OCC)[nH]c2=O)c1O | 16.1 µM (inactive) | 13.8 µM (inactive) | 3.9 µM (inactive) | 0.082 µM (active) | 12.1 µM (inactive) | 26.5 µM (inactive) | 13.3 µM (inactive) | 14.2 µM (inactive) | 13.9 µM (inactive) | 11.6 µM (inactive) | 1.7 µM (inactive) | 0.0989 µM (active) | 27.4 µM (inactive) | 12.8 µM (inactive) |  | 13.9 µM (inactive) | 12.4 µM (inactive) | 13.9 µM (inactive) | 9.42 µM (inactive) | 
9 | C=C1C(=O)O[C@@H]2C[C@@]3(C)CC(=O)C=C(C)[C@@H]3C[C@H]12 | 6.14 µM (inactive) | 4.46 µM (inactive) | 36.8 µM (inactive) | 16.1 µM (inactive) | 3.33 µM (inactive) | 14.7 µM (inactive) |  | 5.83 µM (inactive) | 4.29 µM (inactive) | 6.15 µM (inactive) | 3.94 µM (inactive) | 11.2 µM (inactive) | 11.3 µM (inactive) | 2.69 µM (inactive) | 37.9 µM (inactive) | 14.2 µM (inactive) | 15.5 µM (inactive) | 13.3 µM (inactive) | 16.3 µM (inactive) | 
10 | CCOc1ccc(/C=N/[N+](C)(C)C)cc1OCC | > 10 µM (inactive) | > 10 µM (inactive) |  | > 10 µM (inactive) | > 10 µM (inactive) | > 10 µM (inactive) |  | > 10 µM (inactive) | > 10 µM (inactive) | > 10 µM (inactive) |  | > 10 µM (inactive) | > 10 µM (inactive) | > 10 µM (inactive) | > 10 µM (inactive) | > 10 µM (inactive) | > 10 µM (inactive) | > 10 µM (inactive) | > 10 µM (inactive) | > 10 µM (inactive)
11 | CC1(C)OC(=O)C(=Cc2ccc([N+](=O)[O-])s2)C(=O)O1 | 13.4 µM (inactive) |  | 23.5 µM (inactive) |  | 1.94 µM (inactive) | 16.6 µM (inactive) | 56.6 µM (inactive) | 13.2 µM (inactive) | 15.8 µM (inactive) | 10.6 µM (inactive) |  | 14 µM (inactive) | 18.5 µM (inactive) | 13.7 µM (inactive) | 25.5 µM (inactive) | 11.3 µM (inactive) | 15.4 µM (inactive) |  | 21.1 µM (inactive) | 2.72 µM (inactive)
12 | CC(C)CCNC(=O)c1ccc(CNC(=O)/C=C/c2csc(-c3ccccc3)n2)cc1 | 31.1 µM (inactive) | 41 µM (inactive) | 33.3 µM (inactive) | 14.4 µM (inactive) | > 100 µM (inactive) | > 100 µM (inactive) | > 100 µM (inactive) | > 100 µM (inactive) | > 100 µM (inactive) | > 100 µM (inactive) | 17.3 µM (inactive) | 33.2 µM (inactive) | 36.9 µM (inactive) | 52.7 µM (inactive) | 40 µM (inactive) | > 100 µM (inactive) | 29.4 µM (inactive) | 34.2 µM (inactive) | 27.7 µM (inactive) | 
13 | CC(=O)OCC1=CC2OC(=O)C3=COC(OC4OC(CO)C(O)C(O)C4O)C1C32 (stereo not given) | > 100 µM (inactive) | > 100 µM (inactive) | > 100 µM (inactive) | > 100 µM (inactive) | > 100 µM (inactive) | > 100 µM (inactive) | > 10 µM (inactive) | > 100 µM (inactive) | > 100 µM (inactive) | > 100 µM (inactive) |  | > 100 µM (inactive) | > 100 µM (inactive) | > 100 µM (inactive) | > 100 µM (inactive) | > 100 µM (inactive) | > 100 µM (inactive) | > 100 µM (inactive) | > 100 µM (inactive) | 57 µM (inactive)
14 | C=C=C(CC(CC(=C)Br)(C(=O)OC)C(=O)OC)S(=O)(=O)c1ccccc1 | 1.62 µM (inactive) | 0.556 µM (active) | 6.12 µM (inactive) | 6.22 µM (inactive) | 1.58 µM (inactive) | 1.65 µM (inactive) | 5.86 µM (inactive) | 0.497 µM (active) | 1.6 µM (inactive) | 2.27 µM (inactive) | 1.83 µM (inactive) | 3.77 µM (inactive) | 2.26 µM (inactive) | 2.39 µM (inactive) | 16.6 µM (inactive) | 2.58 µM (inactive) | 1.5 µM (inactive) | 1.66 µM (inactive) | 1.95 µM (inactive) | 
15 | Fc1ccc(C(OCCN2CCC3CCC(C2)N3C/C=C/c2cccs2)c2ccc(F)cc2)cc1 (stereo not given) | 1.37 µM (inactive) | 5.02 µM (inactive) | 7.19 µM (inactive) | 14.7 µM (inactive) | 5.98 µM (inactive) | 13.1 µM (inactive) | 3.08 µM (inactive) | 8.09 µM (inactive) | 12.3 µM (inactive) | 10.6 µM (inactive) | 3.77 µM (inactive) | 3.56 µM (inactive) | 6.24 µM (inactive) | 11.8 µM (inactive) | 12.9 µM (inactive) | 3.21 µM (inactive) | 5.64 µM (inactive) | 10.1 µM (inactive) | 6.25 µM (inactive) | 
